# Measured values from patent EP0748800A2, “Pyrimidinedione, pyrimidinetrione, triazinedione, tetrahydroquinazolinedione derivatives as alpha-1-adrenergic receptor antagonists” (priority 1995, dated 1996).
# Assays:
# α1-adrenoceptor [1] = settings: relative to rabbit isolated urinary bladder smooth muscle; agonist norepinephrine
# Text: The following describes in vitro assays for measuring the relative effect of test compounds on α1-adrenoceptor mediated contraction of rat, isolated aortic smooth muscle and rabbit, isolated urinary bladder smooth muscle.
# Thoracic aorta were isolated from rats and immediately immersed in Krebs' solution (comprising in mM concentrations: NaCl, 118.5; NaHCO3, 25; dextrose, 5; KCl, 4.8; CaCl2, 2.5; MgSO4, 1.2; KH2PO4, 1.2; cocaine, 0.03; corticosterone, 0.03; propranolol, 0.001; ascorbic acid, 0.1; and indomethacin, 0.01). The aortas were dissected free from extraneous tissue and then a cross sectional ring approximately 3 mm in length was cut from the most proximal segment. […] A resting tension of 1 g was applied to each aortic ring and thereafter periodically readjusted to maintain a 1 g resting tension throughout the duration of the assay. […]
# The tissue was then exposed to solution free of agonist, replacing the solution twice every 5 minutes for 30 minutes. After baseline tension was established and readjusted to 1 g, the tissue was exposed to bath solution containing the test compound, replacing the solution every 15 minutes for 60 minutes. […]
# The concentration ratio (CR) of agonist necessary to produce equiactive responses in the absence and presence of the test compound was determined. […]
# α1-adrenoceptor [2] = settings: relative to human prostatic/bladder neck smooth muscle; agonist norepinephrine
# Experimental: (§3) The following describes in vitro assays for measuring the relative effect of test compounds on α1-adrenoceptor mediated contractions of human, isolated arterial and urinary bladder smooth muscle.
# Human arterial blood vessels were obtained post-mortem and immediately immersed in cold physiological saline solution. Within 24 hours of removal the isolated arterial tissue was placed in Krebs' solution (comprising in mM concentrations: NaCl, 118.5; NaHCO3, 25; dextrose, 5; KCl, 4.8; CaCl2, 2.5; MgSO4, 1.2; KH2PO4, 1.2; cocaine, 0.03; corticosterone, 0.03; propranolol, 0.001; ascorbic acid, 0.1; and indomethacin, 0.01). The arteries were dissected free from extraneous tissue and then cut into cross sectional rings approximately 3 mm in length. […] A resting tension of 1 to 1.5 g was applied to each ring and thereafter periodically readjusted to maintain a 1 g resting tension throughout the duration of the assay. […]
# (§4) The tissue was then exposed to solution free of norepinephrine, replacing the solution twice every 5 minutes for 30 minutes. After baseline tension was established and readjusted to 1 g, the tissue was exposed to bath solution containing the test compound, replacing the solution every 15 minutes for 60 minutes. […]
# (§5) The concentration ratio (CR) of norepinephrine necessary to produce equiactive responses in the absence and presence of the test compound was determined. […]
# anesthetized dog [3] = test: Dog in vivo intraurethral pressure assay (hypogastric nerve stimulation); settings: i.v., increasing doses, relative to DAP
# Experimental: (§1) The following describes an in vivo assay for measuring the relative effect of test compounds on hypogastric nerve stimulation-induced increases in intraurethral pressure and phenylephrine-induced increases in diastolic blood pressure in anesthetized dog.
# (§2) Mongrel dogs (10 to 20 kg) were fasted for 12 to 18 hours and anesthetized with pentobarbital sodium (35 mg/kg, i.v.). An endotracheal tube was inserted and thereafter the lungs were mechanically ventilated with room air. The right femoral vein was isolated and cannulated with two polyethylene cannulae, one for the administration of a continuous infusion of pentobarbital sodium (5 to 10 mg/kg/hr) and the other for bolus administration of test substances. The right femoral artery was isolated and cannulated to the abdominal aorta with a fluid filled polyethylene cannula connected to an external pressure transducer for monitoring diastolic aortic pressure (DAP). The bladder was exposed via a ventral midline abdominal incision and emptied of urine through a 22 gauge needle. The bladder was cannulated through a stab incision with a water filled balloon catheter connected to an external pressure transducer for monitoring prostatic intraurethral pressure (IUP). The right hypogastric nerve (HGN) was carefully isolated and attached to a Dastre's electrode for nerve stimulation. […]
# anesthetized dog [4] = settings: in vivo, iv
# Experimental: as §1, §2
# α1-adrenoceptor [5] = settings: relative to human isolated arterial smooth muscle; agonist norepinephrine
# Text: as §3
# Human prostatic and bladder neck smooth muscle tissue was obtained following radical cystoprostatectomies or radical prostatectomies and immediately immersed in Krebs' solution. The prostatic and bladder tissue was dissected free from extraneous tissue and then strips of tissue 0.8 to 1.2 cm in length and 3 to 5 mm in width were cut and suspended vertically in 10 ml tissue baths and bathed in Kreb's solution maintained at 37°C and constantly aerated with a 95% O2 and 5% CO2 gas mixture. A resting tension of 0.75 to 1 g was applied to each muscle strip and thereafter periodically readjusted to maintain a 1 g resting tension throughout the duration of the assay. […]
# as §4, §5
smiles,measurement,setting,value
COc1cc2nc(N3CCN(C(=O)c4ccco4)CC3)nc(N)c2cc1OC [prazosin],"inhibition of α1-adrenoceptor mediated contractions of rat, isolated aortic smooth muscle",α1-adrenoceptor [1],selectively inhibited
same,"inhibition of α1-adrenoceptor mediated contractions of human, isolated arterial smooth muscle",α1-adrenoceptor [2],non-selectively inhibited
same,inhibition of HGN stimulation-induced increases in IUP,anesthetized dog [3],inhibited increases in IUP and DAP in a similar fashion
same,inhibition of phenylephrine-induced increases in DAP,anesthetized dog [4],inhibited increases in IUP and DAP in a similar fashion
same,"inhibition of α1-adrenoceptor mediated contractions of human, isolated prostatic and bladder neck smooth muscle",α1-adrenoceptor [5],non-selectively inhibited
